# pKi: −log10 of the molar value. Like-named read-outs stand apart in the source and are kept apart here.
# Key:
# Format in all cases: biochemical
# SIK2 = SIK2 (Homo sapiens, UniProt Q9H0K1); assay: SIK2 kinase assay, IMAP fluorescence polarization; details: 50 or 100 μM ATP; average; read-out: SIK2-AVERAGE Ki
# SIK3 = SIK3 (Homo sapiens, UniProt Q9Y2K2); assay: SIK3 kinase assay, IMAP fluorescence polarization; details: 50 or 100 μM ATP; average; read-out: SIK3-AVERAGE Ki
# Src = Src (Homo sapiens, UniProt P12931); assay: Src kinase assay, IMAP fluorescence polarization; details: 50 or 100 μM ATP; average; read-out: Src-AVERAGE Ki
# Abl = Abl (Homo sapiens, UniProt P00519); assay: Abl kinase assay, IMAP fluorescence polarization; details: 50 or 100 μM ATP; average; read-out: Abl-AVERAGE Ki
# EPHA2 = EPHA2 (Homo sapiens, UniProt P29317); assay: EPHA2 kinase assay, IMAP fluorescence polarization
# SIK1 = SIK1 (Homo sapiens, UniProt P57059); assay: SIK1 kinase assay, IMAP fluorescence polarization; details: 50 or 100 μM ATP; average; read-out: SIK1-AVERAGE Ki
# Chain of SIK1 (P57059 whole entry): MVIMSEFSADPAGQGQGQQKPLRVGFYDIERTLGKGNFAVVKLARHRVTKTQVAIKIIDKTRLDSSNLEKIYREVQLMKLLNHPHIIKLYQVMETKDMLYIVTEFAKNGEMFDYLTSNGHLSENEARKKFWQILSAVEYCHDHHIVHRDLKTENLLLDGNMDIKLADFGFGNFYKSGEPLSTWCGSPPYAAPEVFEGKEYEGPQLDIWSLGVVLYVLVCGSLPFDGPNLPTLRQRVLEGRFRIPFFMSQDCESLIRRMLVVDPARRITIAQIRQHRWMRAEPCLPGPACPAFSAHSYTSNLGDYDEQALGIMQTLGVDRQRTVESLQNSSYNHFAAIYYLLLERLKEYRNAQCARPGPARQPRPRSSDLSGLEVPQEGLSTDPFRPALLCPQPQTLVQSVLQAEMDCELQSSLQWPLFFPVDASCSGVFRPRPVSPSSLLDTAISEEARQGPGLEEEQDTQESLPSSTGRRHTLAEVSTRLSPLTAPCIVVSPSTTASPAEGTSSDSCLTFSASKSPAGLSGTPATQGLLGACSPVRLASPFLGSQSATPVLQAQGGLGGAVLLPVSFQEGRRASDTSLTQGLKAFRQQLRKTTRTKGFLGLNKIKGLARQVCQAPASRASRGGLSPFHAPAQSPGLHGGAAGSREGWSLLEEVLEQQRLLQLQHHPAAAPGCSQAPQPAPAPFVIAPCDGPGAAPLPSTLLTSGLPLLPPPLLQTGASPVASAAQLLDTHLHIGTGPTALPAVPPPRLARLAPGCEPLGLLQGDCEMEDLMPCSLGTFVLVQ
# Chain of Src (P12931 whole entry): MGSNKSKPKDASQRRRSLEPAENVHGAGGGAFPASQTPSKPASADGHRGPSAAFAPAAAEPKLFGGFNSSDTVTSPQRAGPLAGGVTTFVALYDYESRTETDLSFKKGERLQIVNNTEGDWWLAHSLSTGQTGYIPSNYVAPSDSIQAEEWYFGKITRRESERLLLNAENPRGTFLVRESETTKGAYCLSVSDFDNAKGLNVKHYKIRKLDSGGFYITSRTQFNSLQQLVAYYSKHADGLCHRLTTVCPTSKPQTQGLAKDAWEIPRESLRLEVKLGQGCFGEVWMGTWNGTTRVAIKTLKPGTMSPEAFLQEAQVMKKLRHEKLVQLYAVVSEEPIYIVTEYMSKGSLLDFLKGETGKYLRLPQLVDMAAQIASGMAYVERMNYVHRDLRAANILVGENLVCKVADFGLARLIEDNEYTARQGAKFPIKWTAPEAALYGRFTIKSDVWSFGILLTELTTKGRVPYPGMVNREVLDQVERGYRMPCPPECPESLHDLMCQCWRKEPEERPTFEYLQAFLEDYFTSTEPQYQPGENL
# Chain of EPHA2 (P29317 24-976): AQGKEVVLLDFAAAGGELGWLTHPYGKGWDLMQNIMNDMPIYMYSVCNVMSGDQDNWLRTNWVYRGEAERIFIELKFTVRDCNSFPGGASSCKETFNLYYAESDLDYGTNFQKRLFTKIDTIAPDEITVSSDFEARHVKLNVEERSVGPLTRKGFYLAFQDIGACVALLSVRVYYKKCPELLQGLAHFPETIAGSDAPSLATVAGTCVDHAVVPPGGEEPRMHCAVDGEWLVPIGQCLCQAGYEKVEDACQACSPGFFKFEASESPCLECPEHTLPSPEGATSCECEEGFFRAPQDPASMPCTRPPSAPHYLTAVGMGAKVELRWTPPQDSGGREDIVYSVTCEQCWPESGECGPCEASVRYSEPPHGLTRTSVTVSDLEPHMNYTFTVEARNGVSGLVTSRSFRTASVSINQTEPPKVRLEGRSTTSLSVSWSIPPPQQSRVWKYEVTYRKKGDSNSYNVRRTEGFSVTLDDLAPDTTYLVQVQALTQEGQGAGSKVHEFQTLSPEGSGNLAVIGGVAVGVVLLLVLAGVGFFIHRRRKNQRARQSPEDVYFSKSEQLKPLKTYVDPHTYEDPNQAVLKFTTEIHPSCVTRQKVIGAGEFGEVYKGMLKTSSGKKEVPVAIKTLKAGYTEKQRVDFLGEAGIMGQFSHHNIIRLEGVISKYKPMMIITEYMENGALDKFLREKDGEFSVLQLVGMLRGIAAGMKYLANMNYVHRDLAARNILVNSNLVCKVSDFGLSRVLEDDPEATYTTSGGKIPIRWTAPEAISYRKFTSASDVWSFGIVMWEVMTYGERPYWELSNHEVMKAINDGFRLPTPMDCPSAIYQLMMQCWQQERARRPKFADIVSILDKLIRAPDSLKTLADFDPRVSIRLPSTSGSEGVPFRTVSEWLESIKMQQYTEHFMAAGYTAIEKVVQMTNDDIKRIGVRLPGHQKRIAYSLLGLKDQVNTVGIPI
# Chain of SIK3 (Q9Y2K2 whole entry): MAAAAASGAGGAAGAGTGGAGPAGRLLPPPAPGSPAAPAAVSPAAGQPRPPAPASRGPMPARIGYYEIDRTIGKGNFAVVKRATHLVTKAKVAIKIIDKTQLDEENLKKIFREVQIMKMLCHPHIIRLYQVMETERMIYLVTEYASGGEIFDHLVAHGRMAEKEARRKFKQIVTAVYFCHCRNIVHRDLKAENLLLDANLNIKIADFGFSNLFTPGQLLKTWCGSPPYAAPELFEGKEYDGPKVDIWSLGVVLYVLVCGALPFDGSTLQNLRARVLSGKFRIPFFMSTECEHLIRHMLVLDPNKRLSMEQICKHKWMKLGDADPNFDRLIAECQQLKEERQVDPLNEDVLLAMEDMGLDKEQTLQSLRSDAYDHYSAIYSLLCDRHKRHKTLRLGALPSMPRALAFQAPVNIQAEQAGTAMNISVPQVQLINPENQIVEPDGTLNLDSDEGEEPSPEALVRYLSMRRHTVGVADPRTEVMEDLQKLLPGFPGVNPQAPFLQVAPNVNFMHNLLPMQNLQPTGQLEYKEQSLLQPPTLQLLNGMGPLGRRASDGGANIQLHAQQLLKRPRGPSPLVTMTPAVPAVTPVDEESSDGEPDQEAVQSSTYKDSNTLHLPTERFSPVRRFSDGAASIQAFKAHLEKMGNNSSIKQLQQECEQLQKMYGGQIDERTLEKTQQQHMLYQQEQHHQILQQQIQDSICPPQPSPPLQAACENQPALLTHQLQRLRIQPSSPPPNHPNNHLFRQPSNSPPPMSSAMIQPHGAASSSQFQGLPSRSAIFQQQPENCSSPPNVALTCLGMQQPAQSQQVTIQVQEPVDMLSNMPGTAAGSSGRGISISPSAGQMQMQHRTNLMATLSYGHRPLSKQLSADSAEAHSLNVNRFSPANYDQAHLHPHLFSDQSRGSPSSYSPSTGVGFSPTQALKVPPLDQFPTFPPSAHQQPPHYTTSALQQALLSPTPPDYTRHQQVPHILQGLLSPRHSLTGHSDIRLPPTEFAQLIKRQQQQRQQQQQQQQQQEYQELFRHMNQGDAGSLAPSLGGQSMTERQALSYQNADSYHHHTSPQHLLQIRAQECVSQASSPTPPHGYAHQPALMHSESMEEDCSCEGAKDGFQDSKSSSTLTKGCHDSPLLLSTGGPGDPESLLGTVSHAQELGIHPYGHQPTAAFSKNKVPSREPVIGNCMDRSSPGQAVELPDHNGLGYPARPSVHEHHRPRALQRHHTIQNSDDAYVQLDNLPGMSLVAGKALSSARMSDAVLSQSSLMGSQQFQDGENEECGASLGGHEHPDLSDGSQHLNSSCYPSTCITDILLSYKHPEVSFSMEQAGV
# Chain of SIK2 (Q9H0K1 whole entry): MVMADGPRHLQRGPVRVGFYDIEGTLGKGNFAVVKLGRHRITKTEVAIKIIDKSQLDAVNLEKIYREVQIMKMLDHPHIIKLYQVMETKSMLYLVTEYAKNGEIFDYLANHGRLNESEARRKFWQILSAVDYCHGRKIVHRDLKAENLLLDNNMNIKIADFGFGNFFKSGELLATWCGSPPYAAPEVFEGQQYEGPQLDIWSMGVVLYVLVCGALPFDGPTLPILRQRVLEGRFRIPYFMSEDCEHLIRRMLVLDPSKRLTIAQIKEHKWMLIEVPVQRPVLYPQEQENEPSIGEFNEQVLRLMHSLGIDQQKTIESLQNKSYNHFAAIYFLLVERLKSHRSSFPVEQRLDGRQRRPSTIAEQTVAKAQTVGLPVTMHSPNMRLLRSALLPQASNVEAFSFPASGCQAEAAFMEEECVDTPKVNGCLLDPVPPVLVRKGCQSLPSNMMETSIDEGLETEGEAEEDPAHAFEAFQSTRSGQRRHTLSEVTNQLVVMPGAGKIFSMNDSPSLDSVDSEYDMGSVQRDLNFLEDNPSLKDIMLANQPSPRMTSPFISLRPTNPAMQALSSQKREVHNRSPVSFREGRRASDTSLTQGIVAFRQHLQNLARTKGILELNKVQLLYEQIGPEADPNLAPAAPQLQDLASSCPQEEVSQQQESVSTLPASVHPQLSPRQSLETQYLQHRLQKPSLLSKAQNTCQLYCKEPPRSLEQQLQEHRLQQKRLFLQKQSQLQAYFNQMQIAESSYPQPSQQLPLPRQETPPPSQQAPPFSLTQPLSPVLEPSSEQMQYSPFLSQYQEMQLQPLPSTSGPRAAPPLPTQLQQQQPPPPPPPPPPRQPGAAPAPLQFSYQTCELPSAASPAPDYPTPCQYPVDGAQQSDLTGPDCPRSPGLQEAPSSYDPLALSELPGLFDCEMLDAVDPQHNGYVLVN
SMILES,pKi (SIK2),pKi (SIK3),pKi (Src),pKi (Abl),"pKi (EPHA2; 50 or 100 μM ATP, average)",pKi (SIK1),pKi (EPHA2)
"CNc1cc2c(cn1)CN(c1c(C)cccc1F)C(=O)N2[C@H]1CC[C@@H](N(C)C)CC1 [Example 40, cis-1-[4-(dimethylamino)cyclohexyl]-3-(2-fluoro-6-methyl-phenyl)-7-(methylamino)-4H-pyrido[4,3-d]pyrimidin-2-one]",8.90,7.73,6.20,7.20,6.98,8.41,
"CN[C@H]1CC[C@H](N2C(=O)N(c3c(C)cccc3F)Cc3cnc(N)nc32)CC1 [Example 61, trans-7-amino-3-(2-fluoro-6-methyl-phenyl)-1-[4-(methylamino)cyclohexyl]-4H-pyrimido[4,5-d]pyrimidin-2-one]",9.99,9.55,7.44,7.54,7.70,9.77,
"Cc1cccc(F)c1N1Cc2cnc(N)nc2N([C@H]2CCCCN(C)C2)C1=O [Example 36, 7-amino-3-(2-fluoro-6-methyl-phenyl)-1-[(3S)-1-methylazepan-3-yl]-4H-pyrimido[4,5-d]pyrimidin-2-one]",9.17,8.06,6.86,7.21,6.91,8.73,
"Cc1cccc(F)c1N1Cc2cnc(N)nc2N([C@@H]2CCCN(C)C2)C1=O [Example 42, 7-Amino-3-(2-fluoro-6-methyl-phenyl)-1-[(3R)-1-methyl-3-piperidyl]-4H-pyrimido[4,5-d]pyrimidin-2-one]",8.82,7.85,6.15,6.62,7.17,8.49,
"Cc1cccc(F)c1N1Cc2cnc(N)cc2N([C@H]2CC[C@H](N(C)C)CC2)C1=O [Example 59, trans-7-Amino-1-[4-(dimethylamino)cyclohexyl]-3-(2-fluoro-6-methyl-phenyl)-4H-pyrido[4,3-d]pyrimidin-2-one]",10.00,9.84,7.53,8.14,6.91,9.53,
"CN[C@H]1CC[C@@H](N2C(=O)N(c3c(C)cccc3F)Cc3cnc(N)cc32)CC1 [Example 63, cis-7-amino-3-(2-fluoro-6-methyl-phenyl)-1-[4-(methylamino)cyclohexyl]-4H-pyrido[4,3-d]pyrimidin-2-one]",9.17,8.33,7.39,7.96,7.24,8.66,
"Cc1cccc(F)c1N1Cc2cnc(N)nc2N([C@H]2CCN(C)C2)C1=O [Example 30, 7-amino-3-(2-fluoro-6-methyl-phenyl)-1-[(3S)-1-methylpyrrolidin-3-yl]-4H-pyrimido[4,5-d]pyrimidin-2-one]",8.42,7.19,5.73,6.35,,7.92,7.11
"Cc1cccc(F)c1N1Cc2cnc(N)nc2N([C@H]2CCCNCC2)C1=O [Example 69, 7-amino-1-[(4S)-azepan-4-yl]-3-(2-fluoro-6-methyl-phenyl)-4H-pyrimido[4,5-d]pyrimidin-2-one]",10.00,9.03,7.35,7.71,7.83,9.39,
"CNc1cc2c(cn1)CN(c1c(C)cccc1F)C(=O)N2C1CN(C)C1 [Example 10, 3-(2-Fluoro-6-methyl-phenyl)-7-(methylamino)-1-(1-methylazetidin-3-yl)-4H-pyrido[4,3-d]pyrimidin-2-one]",7.83,6.75,< 6.00,< 6.00,< 6.00,7.17,
"Cc1cccc(F)c1N1Cc2cnc(N)nc2N([C@@H]2CCNC2)C1=O [Example 67, 7-amino-3-(2-fluoro-6-methyl-phenyl)-1-[(3R)-pyrrolidin-3-yl]-4H-pyrimido[4,5-d]pyrimidin-2-one]",8.50,7.38,< 5.00,6.58,6.90,8.23,
"Cc1cccc(F)c1N1Cc2cnc(N)cc2N(C2CN(C)C2)C1=O [Example 5, 7-amino-3-(2-fluoro-6-methyl-phenyl)-1-(1-methylazetidin-3-yl)-4H-pyrido[4,3-d]pyrimidin-2-one]",7.87,6.90,< 6.00,< 6.00,< 6.00,7.25,
"Cc1cccc(F)c1N1Cc2cnc(N)nc2N([C@@H]2CCN(C)C2)C1=O [Example 31, 7-amino-3-(2-fluoro-6-methyl-phenyl)-1-[(3R)-1-methylpyrrolidin-3-yl]-4H-pyrimido[4,5-d]pyrimidin-2-one]",8.32,7.20,< 5.00,6.28,,8.08,6.64

# The next lines start with the values.
pKi (SIK2),pKi (SIK3),pKi (Src),pKi (Abl),"pKi (EPHA2; 50 or 100 μM ATP, average)",pKi (SIK1),pKi (EPHA2),SMILES
8.79,7.81,< 6.00,< 6.00,< 6.00,8.89,,"Cc1cccc(F)c1N1Cc2cnc(N)cc2N([C@H]2CCNC2)C1=O [Example 78, 7-amino-3-(2-fluoro-6-methyl-phenyl)-1-[(3S)-pyrrolidin-3-yl]-4H-pyrido[4,3-d]pyrimidin-2-one]"
9.72,8.84,7.72,8.48,7.37,9.22,,"Cc1cccc(F)c1N1Cc2cnc(N)cc2N([C@H]2CCC[C@@H](N)C2)C1=O (relative stereo) [Example 56, 7-amino-1-[(cis)-3-aminocyclohexyl]-3-(2-fluoro-6-methyl-phenyl)-4H-pyrido[4,3-d]pyrimidin-2-one]"
8.80,7.87,7.15,7.60,7.41,8.71,,"Cc1cccc(F)c1N1Cc2cnc(N)cc2N([C@H]2CCC[C@@H](N(C)C)C2)C1=O (relative stereo) [Example 43, 7-amino-1-[cis-3-(dimethylamino)cyclohexyl]-3-(2-fluoro-6-methyl-phenyl)-4H-pyrido[4,3-d]pyrimidin-2-one]"
9.32,8.49,< 6.00,< 6.00,,9.06,< 6.00,"Cc1cccc(F)c1N1Cc2cnc(N)cc2N([C@H]2CCCNC2)C1=O [Example 49, 7-amino-3-(2-fluoro-6-methyl-phenyl)-1-[(3S)-3-piperidyl]-4H-pyrido[4,3-d]pyrimidin-2-one]"
9.82,8.86,7.62,8.21,7.87,9.71,,"Cc1cccc(F)c1N1Cc2cnc(N)cc2N([C@@H]2CCCCNC2)C1=O [Example 50, 7-amino-3-(2-fluoro-6-methyl-phenyl)-1-[(3R)-azepan-3-yl]-4H-pyrido[4,3-d]pyrimidin-2-one]"
9.74,9.09,7.04,7.98,7.51,9.39,,"Cc1cccc(F)c1N1Cc2cnc(N)cc2N([C@@H]2CCCNCC2)C1=O [Example 51, 7-amino-3-(2-fluoro-6-methyl-phenyl)-1-[(4R)-azepan-4-yl]-4H-pyrido[4,3-d]pyrimidin-2-one]"
8.94,7.68,7.30,7.70,7.63,8.71,,"Cc1cccc(F)c1N1Cc2cnc(N)nc2N([C@@H]2CCCCNC2)C1=O [Example 72, 7-amino-1-[(3R)-azepan-3-yl]-3-(2-fluoro-6-methyl-phenyl)-4H-pyrimido[4,5-d]pyrimidin-2-one]"

# Reference: patent US12509457B2, “Bicyclic nitrogen containing heterocycles as inhibitors of salt-induced kinase SIK2” (priority 2019, dated 2025)
